We go through six compounds from PubChem BioAssay (NCI).

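All cell lines were grown in 96-well plates and treated with compound for 48 hours. At the GI50, growth is halved. TGI denotes the concentration required for complete inhibition of growth.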

Test systems include SR leukemia; UO-31 renal; DU-145 prostate; NCI-H460 lung; OVCAR-3 ovarian; OVCAR-8 ovarian; NCI/ADR-RES ovarian; MDA-MB-435; NCI-H522 lung; SK-MEL-2 melanoma.
Common to all, as to assay: NCI tumour cell line growth inhibition, 48 h

For the compound `CN(C)c1ccc(/C=C/c2ccnc3c(O)cccc23)cc1`, the GI50 with SR leukemia was 0.321 µM; in the assay with UO-31 renal, 0.247 µM; with DU-145 prostate it was 0.626 µM; in the assay with NCI-H460 lung, 0.363 µM; with OVCAR-3 ovarian, 0.462 µM; in the assay on OVCAR-8 ovarian, 0.352 µM. The GI50 with NCI/ADR-RES ovarian is 0.312 µM; in the assay on MDA-MB-435, 0.455 µM; in the assay on NCI-H522 lung, 0.257 µM; in the assay on SK-MEL-2 melanoma, 0.301 µM. The TGI in the assay on SR leukemia was above 100 µM; in the assay with UO-31 renal, above 22.7 µM; in the assay with DU-145 prostate it was above 100 µM; in the assay with NCI-H460 lung, above 100 µM; in the assay on OVCAR-3 ovarian, above 100 µM; with OVCAR-8 ovarian, above 100 µM. The TGI in the assay on MDA-MB-435 was above 100 µM; in the assay on NCI-H522 lung, 1.72 µM; in the assay on SK-MEL-2 melanoma, 11 µM.
As for `C=C(C)[C@@H]1CC[C@]2(COCCC#N)CC[C@]3(C)[C@H](CC[C@@H]4[C@@](C)(CCCNCCC#N)[C@H](C(=C)C)CC[C@]43C)[C@@H]12`, the GI50 in the assay on SR leukemia is 8.48 µM; with UO-31 renal it was 10.7 µM; in the assay with DU-145 prostate it was 21.6 µM; in the assay with NCI-H460 lung, 13.2 µM; in the assay with OVCAR-3 ovarian, 9.66 µM; with OVCAR-8 ovarian, 12.1 µM. For the same compound, the GI50 with NCI/ADR-RES ovarian is 20.7 µM; in the assay on MDA-MB-435, 12.7 µM; with NCI-H522 lung it was 8.55 µM; in the assay with SK-MEL-2 melanoma, 10.7 µM. The TGI in the assay on SR leukemia is 42.3 µM; in the assay with UO-31 renal, above 50 µM; in the assay on DU-145 prostate, above 50 µM; in the assay on NCI-H460 lung, above 50 µM; in the assay on OVCAR-3 ovarian, 22.4 µM; in the assay on OVCAR-8 ovarian it was 31.8 µM. For the same compound, the TGI was above 50 µM in the assay with NCI/ADR-RES ovarian, 34.5 µM in the assay on MDA-MB-435, 23.4 µM with NCI-H522 lung and 25.4 µM in the assay on SK-MEL-2 melanoma.
Turning to `O=C(O)/C=C/C(=O)N1Cc2cc3ccccc3nc2C1`, the TGI in the assay on SR leukemia, in the assay with UO-31 renal, in the assay with DU-145 prostate, in the assay on NCI-H460 lung, in the assay with OVCAR-3 ovarian and with OVCAR-8 ovarian was above 100 µM in each case. Besides, the TGI with NCI/ADR-RES ovarian, with MDA-MB-435, in the assay with NCI-H522 lung and in the assay with SK-MEL-2 melanoma was above 100 µM in each case.
Consider `COC1=CC(c2ccc[nH]2)=N/C1=C\c1[nH]c(C)c(CC(=O)OCc2ccccc2)c1CCC(=O)OCc1ccccc1`, for which the GI50 with SR leukemia was 0.236 µM; with UO-31 renal it was 0.21 µM; in the assay with DU-145 prostate, 0.438 µM; in the assay with NCI-H460 lung it was 0.399 µM; with OVCAR-3 ovarian it was 0.363 µM; with OVCAR-8 ovarian, 0.32 µM. For the same compound, the GI50 was 0.579 µM in the assay with NCI/ADR-RES ovarian, 0.412 µM in the assay with MDA-MB-435, 0.302 µM in the assay on NCI-H522 lung and 0.281 µM in the assay on SK-MEL-2 melanoma. In addition, the TGI in the assay on SR leukemia came to 0.74 µM; in the assay on UO-31 renal, 0.577 µM; in the assay with DU-145 prostate, 12.1 µM; in the assay on NCI-H460 lung it was 13.1 µM; in the assay on OVCAR-3 ovarian, 1.46 µM; with OVCAR-8 ovarian, 1.36 µM. Moreover, the TGI in the assay with NCI/ADR-RES ovarian came to 3.37 µM; in the assay on MDA-MB-435 it was 1.64 µM; in the assay with NCI-H522 lung, 1.85 µM; in the assay with SK-MEL-2 melanoma, 0.758 µM.
For the compound `CCOC(=O)c1ccccc1OC(=O)NNc1ccccc1`, the GI50 in the assay on SR leukemia is 1.47 µM; in the assay on UO-31 renal, 0.535 µM; with DU-145 prostate, above 48.5 µM; with NCI-H460 lung, 0.442 µM; in the assay with OVCAR-3 ovarian it was 16.3 µM; with OVCAR-8 ovarian, 9.19 µM. Besides, the values for the GI50 in the assay on NCI/ADR-RES ovarian, with MDA-MB-435 and in the assay on NCI-H522 lung were 3.8 µM, 0.531 µM and 1.67 µM, respectively. Also, the TGI in the assay on SR leukemia, in the assay with UO-31 renal, with DU-145 prostate, with NCI-H460 lung, in the assay with OVCAR-3 ovarian and in the assay with OVCAR-8 ovarian was above 100 µM throughout. The TGI in the assay on NCI/ADR-RES ovarian was above 100 µM; with MDA-MB-435, above 100 µM; in the assay on NCI-H522 lung, above 100 µM; with SK-MEL-2 melanoma, above 29.3 µM.
Consider `CCC(CC)c1nc(Nc2ccc(C(=O)OC)cc2)c2ccccc2n1`, for which the GI50 in the assay on SR leukemia was 10.1 µM; in the assay on UO-31 renal, 7.94 µM; in the assay with DU-145 prostate, above 22.7 µM; in the assay with NCI-H460 lung, 19.9 µM; in the assay on OVCAR-3 ovarian it was 5.7 µM; in the assay on OVCAR-8 ovarian, 12.9 µM. Also, the GI50 in the assay on NCI/ADR-RES ovarian was 24.3 µM; in the assay with MDA-MB-435, above 18.3 µM; with NCI-H522 lung it was 8.65 µM; in the assay with SK-MEL-2 melanoma, 9.39 µM. The TGI is 26.7 µM in the assay on SR leukemia; 15.4 µM in the assay with UO-31 renal; above 31.1 µM in the assay on DU-145 prostate; above 50 µM with NCI-H460 lung; 21 µM in the assay on OVCAR-3 ovarian; above 31.4 µM with OVCAR-8 ovarian. The TGI was above 34.7 µM in the assay with NCI/ADR-RES ovarian, above 25.6 µM in the assay on MDA-MB-435, 18.4 µM in the assay on NCI-H522 lung and 20 µM in the assay with SK-MEL-2 melanoma.
